The values that follow come from ChEMBL document CHEMBL5154664, “Imidazolylacetophenone oxime-based multifunctional neuroprotective agents: Discovery and structure-activity relationships” (Eur J Med Chem, 2022).

Each structure is given as a SMILES string.

System in the first series: not listed separately
Put plainly: Permeability of compound by PAMPA-BBB assay. Format: ADME. To be noted: read-out: permeability.
In the case of `NC(=O)N1c2ccccc2C=Cc2ccccc21` [CARBAMAZEPINE], the Papp came out at 10.2 ×10⁻⁶ cm/s.

The target in the next series is Acetylcholinesterase (Electrophorus electricus) (UniProt O42275). Put plainly: Inhibition of electric eel AChE at 20 uM using acetylthiocholine iodide as substrate preincubated with enzyme for 20 mins followed by substrate addition and measured after 45 mins by Ellman's method. Conditions: time 65.0 min. (In general: Ellman's reagent forms a yellow product with free thiols.)
Sequence of Acetylcholinesterase (Electrophorus electricus) (O42275 24-633 limits assumed): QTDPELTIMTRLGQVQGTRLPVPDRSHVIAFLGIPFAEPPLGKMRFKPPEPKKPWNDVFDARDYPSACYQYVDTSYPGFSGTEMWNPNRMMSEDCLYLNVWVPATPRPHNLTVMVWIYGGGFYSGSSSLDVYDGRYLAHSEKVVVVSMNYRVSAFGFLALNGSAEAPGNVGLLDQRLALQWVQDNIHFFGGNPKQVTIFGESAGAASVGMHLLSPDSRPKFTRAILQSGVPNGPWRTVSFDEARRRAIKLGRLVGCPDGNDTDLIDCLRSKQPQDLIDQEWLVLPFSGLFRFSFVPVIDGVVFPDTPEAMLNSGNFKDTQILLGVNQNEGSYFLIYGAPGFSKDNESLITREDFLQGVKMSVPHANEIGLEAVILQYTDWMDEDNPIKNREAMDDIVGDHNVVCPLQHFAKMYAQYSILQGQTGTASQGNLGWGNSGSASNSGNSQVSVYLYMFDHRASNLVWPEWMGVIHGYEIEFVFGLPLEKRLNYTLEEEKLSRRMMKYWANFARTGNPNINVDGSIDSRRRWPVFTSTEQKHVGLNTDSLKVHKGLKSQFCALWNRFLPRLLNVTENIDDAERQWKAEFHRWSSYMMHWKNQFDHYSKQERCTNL
For the molecule `CC1(C)Oc2ccc(/C(Cn3ccnc3)=N/OC(=O)c3ccc4cc(Br)ccc4c3)cc2O1`, the inhibition (usually the share of the control response that was lost under treatment) was determined as 69%.
Same read-out and setting: for `CC1(C)Oc2ccc(/C(Cn3ccnc3)=N/OC(=O)c3ccc4ccccc4c3Br)cc2O1` the value was 72%; for `CC1(C)Oc2ccc(/C(Cn3ccnc3)=N/OC(=O)/C=C/c3ccc(Cl)cc3)cc2O1`, 71%.

System in a further series: not listed separately
Briefly: Antioxidant activity assessed as DPPH radical scavenging activity at 20 uM incubated for 30 mins under dark condition by microplate reader based assay. Format: functional.
Details: not given
Background: The DPPH test is a chemical assay of radical scavenging.
As for `CC1(C)Oc2ccc(/C(Cn3ccnc3)=N/OC(=O)c3cccc4ccccc34)cc2O1`, the Activity worked out at 36.2%.
On the same count and under the same terms, for `CC(C)=CCO/N=C(\Cn1ccnc1)c1ccc2c(c1)OCO2` the value was 4.25%; for `FC(F)(F)c1ccccc1CO/N=C(\Cn1ccnc1)c1ccc2c(c1)OCO2`, 8.51%.
Still for that read-out and setting: for `Cc1ccc(C(=O)O/N=C(\Cn2ccnc2)c2ccc3c(c2)OC(C)(C)O3)c2ccccc12` the value was 34%.
The same measure, in the same setting: for `Cc1cccc(C(=O)O/N=C(\Cn2ccnc2)c2ccc3c(c2)OC(C)(C)O3)c1` the value was 29.8%; for `CC1(C)Oc2ccc(/C(Cn3ccnc3)=N/OC(=O)/C=C/c3ccc(C(F)(F)F)cc3)cc2O1`, 27.7%.

System in a further series: not listed separately
Put plainly: Cytotoxicity against LPS induced mouse BV-2 cells assessed as inhibition in cell viability at 20 uM measured by MTT assay. Conditions: BV-2 cells. (Formazan colour is commonly taken as a measure of viable cells.)
In the case of `C#CCO/N=C(\Cn1ccnc1)c1ccc(Br)cc1`, the CC50 (as a rule, the concentration that lowers cell viability or growth by half) was more than 20 µM.
For the molecule `Cc1ccc(C(=O)O/N=C(\Cn2ccnc2)c2ccc3c(c2)OC(C)(C)O3)cc1`, the viability – broadly, a read-out of living cells in per cent, often relative to untreated cells – at 20 µM worked out at 98.2%.
Same read-out and setting: for `CC1(C)Oc2ccc(/C(Cn3ccnc3)=N/OC(=O)c3ccccc3Br)cc2O1` the value was 95.4%.
On the same count and under the same terms, for `CC1(C)Oc2ccc(/C(Cn3ccnc3)=N/OC(=O)/C=C/c3ccccc3F)cc2O1` the value was 90.8%; for `FC(F)(F)c1ccc(CO/N=C(\Cn2ccnc2)c2ccc3c(c2)OCO3)cc1`, 92.8%.
Take `CC1(C)Oc2ccc(/C(Cn3ccnc3)=N/OC(=O)c3ccc4cc(Br)ccc4c3)cc2O1`: the viability at 20 µM amounted to 92.7%.
Turning to `C=CCO/N=C(\Cn1ccnc1)c1ccc2c(c1)OCO2`, the viability at 20 µM worked out at 97.8%.
`CC1(C)Oc2ccc(/C(Cn3ccnc3)=N/OC(=O)/C=C/c3cccc(Cl)c3)cc2O1`: the viability at 20 µM was 92.7%.
On the same count and under the same terms, for `C#CC(C)O/N=C(\Cn1ccnc1)c1ccc2c(c1)OCO2` (centres undefined) the value was 96.1%.
Still for that read-out and setting: for `O=c1c(O)c(-c2ccc(O)c(O)c2)oc2cc(O)cc(O)c12` [QUERCETIN] the value was 94.3%; for `CC1(C)Oc2ccc(/C(Cn3ccnc3)=N/OC(=O)c3ccc(Br)cc3)cc2O1`, 92.6%; for `CC1(C)Oc2ccc(/C(Cn3ccnc3)=N/OC(=O)/C=C/c3ccccc3)cc2O1`, 91.8%.
The same measure, in the same setting: for `CC1(C)Oc2ccc(/C(Cn3ccnc3)=N/OC(=O)c3ccc4ccccc4c3Br)cc2O1` the value was 90.8%; for `CC1(C)Oc2ccc(/C(Cn3ccnc3)=N/OC(=O)c3ccc(Cl)cc3)cc2O1`, 90.5%; for `CC1(C)Oc2ccc(/C(Cn3ccnc3)=N/OC(=O)c3ccc(F)cc3)cc2O1`, 99.7%.
With `C=CCO/N=C(\Cn1ccnc1)c1ccc2c(c1)OC(C)(C)O2`, the viability at 20 µM stood at 96.4%.
With `N#Cc1ccc(CO/N=C(\Cn2ccnc2)c2ccc3c(c2)OCO3)cc1`, the viability at 20 µM was 91.6%.
Same read-out and setting: for `CC1(C)Oc2ccc(/C(Cn3ccnc3)=N/OC(=O)/C=C/c3ccc(Br)cc3)cc2O1` the value was 96.3%.
Take `C#CCO/N=C(\Cn1ccnc1)c1ccc(C(F)(F)F)cc1`: the viability at 20 µM was 93.7%.
Still for that read-out and setting: for `C#CCO/N=C(\Cn1ccnc1)c1ccc(OC)cc1` the value was 95.9%; for `CC1(C)Oc2ccc(/C(Cn3ccnc3)=N/OC(=O)/C=C/c3ccc(Cl)cc3)cc2O1`, 91%.
`C(=C\c1ccccc1)/CO/N=C(\Cn1ccnc1)c1ccc2c(c1)OCO2`: the viability at 20 µM was 96.3%.
Still for that read-out and setting: for `CC1(C)Oc2ccc(/C(Cn3ccnc3)=N/OC(=O)c3cccc4ccccc34)cc2O1` the value was 91.1%; for `C#CCO/N=C(\Cn1ccnc1)c1ccc2c(c1)OC(C)(C)O2`, 95.1%; for `C#CCO/N=C(\Cn1ccnc1)c1ccc(Cl)cc1`, 92.4%.
Still for that read-out and setting: for `c1ccc(CO/N=C(\Cn2ccnc2)c2ccc3c(c2)OCO3)cc1` the value was 97.8%; for `C#CCO/N=C(\Cn1ccnc1)c1ccc2c(c1)OCO2`, 92.5%; for `CC(C)=CCO/N=C(\Cn1ccnc1)c1ccc2c(c1)OCO2`, 93.3%.
Still for that read-out and setting: for `CC1(C)Oc2ccc(/C(Cn3ccnc3)=N/OC(=O)Cc3ccc4ccccc4c3)cc2O1` the value was 96.4%.
Regarding `CC1(C)Oc2ccc(/C(Cn3ccnc3)=N/OCc3ccccc3)cc2O1`, the viability at 20 µM turned out to be 95.7%.
On the same count and under the same terms, for `FC(F)(F)c1ccccc1CO/N=C(\Cn1ccnc1)c1ccc2c(c1)OCO2` the value was 95.4%.
Still for that read-out and setting: for `Cc1ccc(/C=C/C(=O)O/N=C(\Cn2ccnc2)c2ccc3c(c2)OC(C)(C)O3)cc1` the value was 93.6%.
The same measure, in the same setting: for `Cc1ccc(C(=O)O/N=C(\Cn2ccnc2)c2ccc3c(c2)OC(C)(C)O3)c2ccccc12` the value was 94.3%; for `Cc1cccc(C(=O)O/N=C(\Cn2ccnc2)c2ccc3c(c2)OC(C)(C)O3)c1`, 96.1%; for `C#CCO/N=C(\Cn1ccnc1)c1ccc(I)cc1`, 92.1%.
Turning to `C#CCO/N=C(\Cn1ccnc1)c1ccc(F)cc1`, the viability at 20 µM came out at 93.8%.
The same measure, in the same setting: for `C=C(C)CO/N=C(\Cn1ccnc1)c1ccc2c(c1)OCO2` the value was 96.5%; for `CC1(C)Oc2ccc(/C(Cn3ccnc3)=N/OC(=O)/C=C/c3ccc(C(F)(F)F)cc3)cc2O1`, 92.1%; for `CC1(C)Oc2ccc(/C(Cn3ccnc3)=N/OC(=O)/C=C/c3ccc(F)cc3)cc2O1`, 95.7%.

The same series, now with this note: bv-2.
As for `Clc1ccc(CO/N=C(\Cn2ccnc2)c2ccc(Cl)cc2Cl)c(Cl)c1` [OXICONAZOLE], the viability at 20 µM is 96.2%.

System in a further series: not listed separately
Briefly: Inhibition of LPS induced NO production in mouse BV-2 cells by Griess reagent based analysis. Format: functional, cell-based.
Details: not given
Regarding `C#CCO/N=C(\Cn1ccnc1)c1ccc(Br)cc1`, it took 5.6 µM to reach a half-maximal effect (EC50).
As to `Cc1ccc(C(=O)O/N=C(\Cn2ccnc2)c2ccc3c(c2)OC(C)(C)O3)cc1`, the midpoint of the response, the EC50, lay at 9.05 µM.
Same read-out and setting: for `CC1(C)Oc2ccc(/C(Cn3ccnc3)=N/OC(=O)c3ccccc3Br)cc2O1` the value was 3.89 µM; for `CC1(C)Oc2ccc(/C(Cn3ccnc3)=N/OC(=O)/C=C/c3ccccc3F)cc2O1`, 3.19 µM.
Still for that read-out and setting: for `FC(F)(F)c1ccc(CO/N=C(\Cn2ccnc2)c2ccc3c(c2)OCO3)cc1` the value was 2.37 µM; for `CC1(C)Oc2ccc(/C(Cn3ccnc3)=N/OC(=O)c3ccc4cc(Br)ccc4c3)cc2O1`, 1.13 µM; for `C=CCO/N=C(\Cn1ccnc1)c1ccc2c(c1)OCO2`, 3.42 µM.
Same read-out and setting: for `CC1(C)Oc2ccc(/C(Cn3ccnc3)=N/OC(=O)/C=C/c3cccc(Cl)c3)cc2O1` the value was 4.83 µM; for `C#CC(C)O/N=C(\Cn1ccnc1)c1ccc2c(c1)OCO2` (centres undefined), 5.41 µM.
On to `O=c1c(O)c(-c2ccc(O)c(O)c2)oc2cc(O)cc(O)c12` [QUERCETIN], for which the response was half-maximal at 9.56 µM (EC50).
On the same count and under the same terms, for `CC1(C)Oc2ccc(/C(Cn3ccnc3)=N/OC(=O)c3ccc(Br)cc3)cc2O1` the value was 3.16 µM; for `CC1(C)Oc2ccc(/C(Cn3ccnc3)=N/OC(=O)/C=C/c3ccccc3)cc2O1`, 5.85 µM; for `CC1(C)Oc2ccc(/C(Cn3ccnc3)=N/OC(=O)c3ccc4ccccc4c3Br)cc2O1`, 6.5 µM.
The same measure, in the same setting: for `CC1(C)Oc2ccc(/C(Cn3ccnc3)=N/OC(=O)c3ccc(Cl)cc3)cc2O1` the value was 5.52 µM.
Same read-out and setting: for `CC1(C)Oc2ccc(/C(Cn3ccnc3)=N/OC(=O)c3ccc(F)cc3)cc2O1` the value was 6.32 µM; for `C=CCO/N=C(\Cn1ccnc1)c1ccc2c(c1)OC(C)(C)O2`, 2.22 µM.
For `N#Cc1ccc(CO/N=C(\Cn2ccnc2)c2ccc3c(c2)OCO3)cc1`, the EC50 (as a rule, the midpoint of the concentration-response curve) was found to be 4.24 µM.
As for `CC1(C)Oc2ccc(/C(Cn3ccnc3)=N/OC(=O)/C=C/c3ccc(Br)cc3)cc2O1`, the EC50 came out at 6.89 µM.
The same measure, in the same setting: for `C#CCO/N=C(\Cn1ccnc1)c1ccc(C(F)(F)F)cc1` the value was 8.55 µM; for `C#CCO/N=C(\Cn1ccnc1)c1ccc(OC)cc1`, 9.07 µM; for `CC1(C)Oc2ccc(/C(Cn3ccnc3)=N/OC(=O)/C=C/c3ccc(Cl)cc3)cc2O1`, 3.71 µM.
Same read-out and setting: for `C(=C\c1ccccc1)/CO/N=C(\Cn1ccnc1)c1ccc2c(c1)OCO2` the value was more than 20 µM; for `CC1(C)Oc2ccc(/C(Cn3ccnc3)=N/OC(=O)c3cccc4ccccc34)cc2O1`, 1.62 µM.
Still for that read-out and setting: for `C#CCO/N=C(\Cn1ccnc1)c1ccc2c(c1)OC(C)(C)O2` the value was 3.25 µM; for `C#CCO/N=C(\Cn1ccnc1)c1ccc(Cl)cc1`, 15.5 µM.
`c1ccc(CO/N=C(\Cn2ccnc2)c2ccc3c(c2)OCO3)cc1` returned an EC50 of 4.43 µM.
Same read-out and setting: for `C#CCO/N=C(\Cn1ccnc1)c1ccc2c(c1)OCO2` the value was 2.07 µM; for `CC(C)=CCO/N=C(\Cn1ccnc1)c1ccc2c(c1)OCO2`, 1.76 µM; for `CC1(C)Oc2ccc(/C(Cn3ccnc3)=N/OC(=O)Cc3ccc4ccccc4c3)cc2O1`, 1.51 µM.
`CC1(C)Oc2ccc(/C(Cn3ccnc3)=N/OCc3ccccc3)cc2O1` showed an EC50 of 5.69 µM.
On the same count and under the same terms, for `FC(F)(F)c1ccccc1CO/N=C(\Cn1ccnc1)c1ccc2c(c1)OCO2` the value was 1.53 µM; for `Cc1ccc(/C=C/C(=O)O/N=C(\Cn2ccnc2)c2ccc3c(c2)OC(C)(C)O3)cc1`, 6.03 µM.
Still for that read-out and setting: for `Cc1ccc(C(=O)O/N=C(\Cn2ccnc2)c2ccc3c(c2)OC(C)(C)O3)c2ccccc12` the value was 1.79 µM; for `Cc1cccc(C(=O)O/N=C(\Cn2ccnc2)c2ccc3c(c2)OC(C)(C)O3)c1`, 1.71 µM.
Turning to `C#CCO/N=C(\Cn1ccnc1)c1ccc(I)cc1`, a half-maximal effect (EC50) was put at 12.7 µM.
On the same count and under the same terms, for `C#CCO/N=C(\Cn1ccnc1)c1ccc(F)cc1` the value was 7.8 µM; for `C=C(C)CO/N=C(\Cn1ccnc1)c1ccc2c(c1)OCO2`, 2.12 µM.
Same read-out and setting: for `CC1(C)Oc2ccc(/C(Cn3ccnc3)=N/OC(=O)/C=C/c3ccc(C(F)(F)F)cc3)cc2O1` the value was 1.03 µM; for `CC1(C)Oc2ccc(/C(Cn3ccnc3)=N/OC(=O)/C=C/c3ccc(F)cc3)cc2O1`, 5.96 µM.
